Source: ChEMBL document CHEMBL3244298, “Adamantylthiourea derivatives as antiviral agents” (J Med Chem, 1979)
Calls of active or inactive are those of the source. The calls are words filed in the database; no cut-off is given here.

Key:
[1] = system: unidentified influenza virus; assay: Antiviral activity against Influenza virus A2/Asian/J305 infected in ip dosed mouse assessed as concentration required to cause survival at 21 days; format: functional; conditions: 504 h, read-out: PD50
[2] = system: unidentified influenza virus; assay: Antiviral activity against Influenza virus A2/Asian/J305 infected in mouse assessed as survival at 200 mg/kg, ip administered single dose at 5 mins post viral infection followed by 2 doses per day for next 3 days relative to control; format: functional; conditions: route intraperitoneal
[3] = system: unidentified influenza virus; assay: Antiviral activity against Influenza virus A2/Asian/J305 infected in po dosed mouse assessed as concentration required to cause survival at 21 days; format: functional; conditions: 504 h, read-out: PD50
[4] = Acute toxicity in ip dosed mouse measured for 24 hrs; format: organism-based; conditions: in vivo
Respirovirus muris = assay: Antiviral activity against Sendai virus infected in ip dosed mouse assessed as protection against viral infection; format: functional, organism-based
Influenza B virus = assay: Antiviral activity against Influenza B virus (B/Lee/40) infected in rhesus monkey kidney cells assessed as growth inhibition after 4 days by tube dilution method; format: functional, organism-based; conditions: B/Lee/1940
[5] = system: unidentified influenza virus; assay: Antiviral activity against Influenza virus A2/Asian/J305 infected in mouse assessed as survival at 200 mg/kg, ip administered two doses at 24 hrs post viral infection followed by single dose for subsequent days relative to control; format: functional; conditions: route intraperitoneal
Semliki Forest virus = assay: Antiviral activity against Semliki forest virus infected in ip dosed mouse assessed as protection against viral infection; format: functional, organism-based
Mus musculus [6] = assay: Toxicity in mouse assessed as CNS related side effects up to 1000 mg/kg, po measured for 24 hrs; format: organism-based, Central nervous system; set-up: dose 1000 mg/kg, route oral; conditions: in vivo
Mus musculus [7] = assay: Toxicity in mouse assessed as ataxia at > 600 mg/kg, ip measured for 24 hrs; format: organism-based; set-up: dose 600 mg/kg, route intraperitoneal; conditions: in vivo
[8] = system: unidentified influenza virus; assay: Antiviral activity against Influenza virus A2/Asian/J305 infected in mouse assessed as survival at 200 mg/kg, ip administered 3 doses on day of viral infection followed by 2 doses on next day and single dose per day for next 2 days relative to control; format: functional; conditions: 48 h, route intraperitoneal
[9] = Acute toxicity in po dosed mouse measured for 24 hrs; format: organism-based; conditions: in vivo
Enterovirus = assay: Antiviral activity against Rhinovirus 42 infected in human WI38 cells assessed as growth inhibition after 7 days by tube dilution method; format: functional, organism-based; conditions: WI-38
Herpesviridae sp. = assay: Antiviral activity against Herpes simplex virus infected in ip dosed mouse assessed as protection against viral infection; format: functional, organism-based
[10] = system: unidentified influenza virus; assay: Antiviral activity against Influenza virus A2/Asian/J305 infected in rhesus monkey kidney cells assessed as concentration required to reduce viral titer by >= 2 logarithms after 4 days by tube dilution method; format: functional
[11] = system: unidentified influenza virus; assay: Antiviral activity against Influenza virus A2/Asian/J305 infected in mouse assessed as survival at 200 mg/kg, ip administered two doses at 48 hrs post viral infection followed by single dose for subsequent days relative to control; format: functional; conditions: route intraperitoneal
Mus musculus [12] = assay: Toxicity in mouse assessed as tremors at > 600 mg/kg, ip measured for 24 hrs; format: organism-based; set-up: dose 600 mg/kg, route intraperitoneal; conditions: in vivo
[13] = system: unidentified influenza virus; assay: Antiviral activity against Influenza virus A2/Asian/J305 infected in mouse assessed as survival at 100 mg/kg, ip administered two doses at 48 hrs post viral infection followed by single dose for subsequent days relative to control; format: functional; conditions: route intraperitoneal
[14] = system: unidentified influenza virus; assay: Antiviral activity against Influenza virus A2/Asian/J305 infected in mouse assessed as survival at 100 mg/kg, ip administered single dose at 5 mins post viral infection followed by 2 doses per day for next 3 days relative to control; format: functional; conditions: route intraperitoneal
[15] = system: unidentified influenza virus; assay: Antiviral activity against Influenza virus A2/Asian/J305 infected in mouse assessed as survival at 50 mg/kg, ip administered 3 doses on day of viral infection followed by 2 doses on next day and single dose per day for next 2 days relative to control; format: functional; conditions: 48 h, route intraperitoneal
[16] = system: unidentified influenza virus; assay: Antiviral activity against Influenza virus A2/Asian/J305 infected in mouse assessed as survival at 100 mg/kg, ip administered two doses at 24 hrs post viral infection followed by single dose for subsequent days relative to control; format: functional; conditions: route intraperitoneal
Mus musculus [17] = assay: Toxicity in mouse assessed as CNS related side effects at 100 mg/kg, ip and 300 mg/kg, po measured for 24 hrs; format: organism-based, Central nervous system; conditions: in vivo

SMILES: O=C(NC(=S)NC12CC3CC(CC(C3)C1)C2)Oc1ccccc1
- ED50 [1]: > 400 mg/kg

SMILES: Nc1ccc(S(=O)(=O)NC(=S)NC23CC4CC(CC(C4)C2)C3)cc1
- survival at 200 mg/kg [2]: 36%
- ED50 [3]: 35 mg/kg
- LD50 at 24 h [4]: 775 mg/kg
- Activity (Respirovirus muris): inactive
- growth inhibition (GI) (Influenza B virus): inactive
- survival at 200 mg/kg [5]: 28%
- Activity (Semliki Forest virus): inactive
- Activity (Mus musculus [6]): Non-toxic
- Activity (Mus musculus [7]): Toxic
- survival at 200 mg/kg [8]: 77%
- LD50 at 24 h [9]: > 1000 mg/kg
- growth inhibition (GI) (Enterovirus): inactive
- Activity (Herpesviridae sp.): inactive
- Activity [10]: 12.5 µg/mL
- survival at 200 mg/kg [11]: 0%
- Activity (Mus musculus [12]): Toxic
- ED50 [1]: 16 mg/kg

SMILES: NC12CC3CC(CC(C3)C1)C2 [AMANTADINE]
- survival at 100 mg/kg [13]: 0%
- ED50 [3]: 4 mg/kg
- Activity (Respirovirus muris): inactive
- survival at 100 mg/kg [14]: 67%
- growth inhibition (GI) (Influenza B virus): inactive
- survival at 50 mg/kg [15]: 72%
- survival at 100 mg/kg [16]: 77%
- Activity (Mus musculus [17]): Toxic
- Activity (Semliki Forest virus): inactive
- growth inhibition (GI) (Enterovirus): inactive
- Activity (Herpesviridae sp.): inactive
- Activity [10]: 0.05 µg/mL
- ED50 [1]: 6 mg/kg

SMILES: Cc1ccc(S(=O)(=O)NC(=S)NC23CC4CC(CC(C4)C2)C3)cc1
- ED50 [1]: > 200 mg/kg

SMILES: NC(=S)NC12CC3CC(CC(C3)C1)C2
- ED50 [1]: > 200 mg/kg

SMILES: NC(=O)NC(=S)NC12CC3CC(CC(C3)C1)C2
- ED50 [1]: > 400 mg/kg

SMILES: CC(=O)Nc1ccc(S(=O)(=O)NC(=S)NC23CC4CC(CC(C4)C2)C3)cc1
- ED50 [1]: > 200 mg/kg

SMILES: CCOC(=O)NC(=S)NC12CC3CC(CC(C3)C1)C2
- ED50 [1]: > 400 mg/kg

SMILES: CCOC(=O)/N=C(/NC12CC3CC(CC(C3)C1)C2)SC
- ED50 [1]: 158 mg/kg

SMILES: O=C1CSC(NC23CC4CC(CC(C4)C2)C3)=N1
- ED50 [1]: > 200 mg/kg
